Experimental findings from PMC4379176, “Unsaturation of Very-Long-Chain Ceramides Protects Plant from Hypoxia-Induced Damages by Modulating Ethylene Signaling in Arabidopsis” (PLoS Genetics, 2015) are described below.

Where two headings read alike, the source gives them in different places.

In assay [1] the target is T1, rCTR1 (Arabidopsis thaliana, UniProt Q05609).
T1 construct: gene CTR1; full-length CTR1 coding region, N-terminal GST fusion (pGEX-6P-1), E. coli BL21 (DE3); tag kept (detected by anti-GST)
T1 sequence (Q05609 1-821): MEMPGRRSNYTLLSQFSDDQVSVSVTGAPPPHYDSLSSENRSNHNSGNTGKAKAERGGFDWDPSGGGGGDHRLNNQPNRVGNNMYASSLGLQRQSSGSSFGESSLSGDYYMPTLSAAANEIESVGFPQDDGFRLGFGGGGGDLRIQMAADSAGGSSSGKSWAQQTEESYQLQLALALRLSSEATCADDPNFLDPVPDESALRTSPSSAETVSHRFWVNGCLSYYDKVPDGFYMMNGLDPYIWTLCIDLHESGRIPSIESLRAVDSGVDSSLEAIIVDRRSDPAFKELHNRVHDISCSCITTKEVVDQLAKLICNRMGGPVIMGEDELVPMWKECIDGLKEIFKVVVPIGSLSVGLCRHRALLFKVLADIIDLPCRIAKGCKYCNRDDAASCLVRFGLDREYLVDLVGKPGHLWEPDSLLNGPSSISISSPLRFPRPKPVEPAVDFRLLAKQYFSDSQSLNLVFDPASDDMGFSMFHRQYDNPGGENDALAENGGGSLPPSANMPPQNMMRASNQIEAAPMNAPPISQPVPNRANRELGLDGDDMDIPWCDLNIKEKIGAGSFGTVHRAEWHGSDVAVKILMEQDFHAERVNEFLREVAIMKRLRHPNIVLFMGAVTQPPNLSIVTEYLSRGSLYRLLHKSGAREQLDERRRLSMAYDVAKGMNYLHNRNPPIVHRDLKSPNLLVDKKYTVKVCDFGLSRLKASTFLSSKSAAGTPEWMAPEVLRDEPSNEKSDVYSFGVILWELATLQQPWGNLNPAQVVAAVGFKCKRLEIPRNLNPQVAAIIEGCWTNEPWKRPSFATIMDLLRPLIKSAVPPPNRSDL
The experiment in a line: TR-FRET kinase assay (HTRF KinEASE, STK Substrate 2-biotin). The class given is biochemical. The settings on record: liposomes pre-incubated 30 min at 4°C; 100 μM ATP, 1 μM STK Substrate 2-biotin; room temperature; inhibition. In general terms: In TR-FRET formats the signal depends on donor and acceptor labels being close together.

For assay [2], the target named is T2, rCTR1-K (Arabidopsis thaliana, UniProt Q05609).
T2 construct: gene CTR1; tag kept
The assay is described as above. The settings on record: liposomes pre-incubated 30 min at 4°C; 100 μM ATP, 1 μM STK Substrate 2-biotin; room temperature; inhibition. It counts as biochemical.

Assay [3] deals with T1, rCTR1. The experiment in a line: microscale thermophoresis. It counts as binding. The source says:
microscale thermophoresis on rCTR1

In assay [4] the target is T2, rCTR1-K. The experiment in a line: microscale thermophoresis. The class given is binding. The settings on record: liposomes of the lipid, 10 nM RED-labelled protein, 50 mM Tris-HCl pH 7.4, 150 mM NaCl, 10 mM MgCl2, 0.05% Tween-20. An excerpt:
microscale thermophoresis on rCTR1-K
For orientation: Microscale thermophoresis detects binding through changes in fluorescence in a small temperature gradient.

Where [5] appears, read: read-out: Dissociation Constants (K d) / 24:1-Cer.

For the compound `CCCCCCCC/C=C\CCCCCCCCCCCCCC(=O)N[C@@H](CO)[C@H](O)/C=C/CCCCCCCCCCCCC` [24:1-Cer], the “relative CTR1 activity at 1 nM” value on rCTR1 [1] was “both rCTR1 and rCTR1-K proteins exhibited decreased kinase activities”; at rCTR1-K [2], “both rCTR1 and rCTR1-K proteins exhibited decreased kinase activities”. Besides, the Kd at rCTR1 [3] (setting [5]) was 1.6 ± 0.1 µM; at rCTR1-K [4] (setting [5]), 1 ± 0.1 µM.

As to 18:0-Cer, the Kd is 50.6 ± 5.2 µM at rCTR1 [3] (liposomes of the lipid, 10 nM RED-labelled protein, 50 mM Tris-HCl pH 7.4, 150 mM NaCl, 10 mM MgCl2, 0.05% Tween-20, highest liposome concentration 50 μM, no binding seen on filters, read-out: Dissociation Constants (K d) / 18:0-Cer) and 49.3 ± 7 µM at rCTR1-K [4] (read-out: Dissociation Constants (K d) / 18:0-Cer).

Take 24:0-Cer: the Kd on rCTR1 [3] (liposomes of the lipid, 10 nM RED-labelled protein, 50 mM Tris-HCl pH 7.4, 150 mM NaCl, 10 mM MgCl2, 0.05% Tween-20, read-out: Dissociation Constants (K d) / 24:0-Cer) was found to be 10.8 ± 1.3 µM; at rCTR1-K [4] (read-out: Dissociation Constants (K d) / 24:0-Cer), 4.3 ± 1.3 µM.
